For 36 molecules, IC50 results are on record in patent publication US12421225B2, “Heteroaromatic amide derivative and medicament containing the same” (KAKEN PHARMACEUTICAL CO., LTD., priority 2018, dated 2025).

The target in one series is human Nav1.7 (Homo sapiens (Human), UniProt Q15858). The experiment in a line: Human Nav1.7 inhibitory activity evaluation (automated patch clamp QPatch16X, HEK293A cells stably expressing human Nav1.7 and human Navβ1). Type of series: cell-based. Summed up:
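QPatch16X whole-cell recordings at room temperature from HEK293A cells stably expressing human Nav1.7 with Navβ1, CsF-based internal solution, pH 7.4 external, 0.1% DMSO. From −100 mV holding, protocol included a 15 s hold at a potential inactivating ~30-40% of channels; IC50 from inward current at the second −10 mV pulse.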
(In patch-clamp work, channel activity is measured electrically.)

A further series deals with human Nav1.5 (Homo sapiens (Human), UniProt Q14524). The series can be described thus: Human Nav1.5 inhibitory activity evaluation (automated patch clamp QPatch16X, HEK293 cells stably expressing human Nav1.5). Type of series: cell-based. The gist of the method: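 Whole-cell automated patch clamp at room temperature on HEK293 stably expressing human Nav1.5; holding −80 mV, 20 consecutive cardiomyocyte action-potential-like test pulses before and after compound (0.1% DMSO). Inhibition measured on inward current at 20th pulse; IC50 from concentration-response curve.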
Sequence of human Nav1.5 (Q14524 whole entry): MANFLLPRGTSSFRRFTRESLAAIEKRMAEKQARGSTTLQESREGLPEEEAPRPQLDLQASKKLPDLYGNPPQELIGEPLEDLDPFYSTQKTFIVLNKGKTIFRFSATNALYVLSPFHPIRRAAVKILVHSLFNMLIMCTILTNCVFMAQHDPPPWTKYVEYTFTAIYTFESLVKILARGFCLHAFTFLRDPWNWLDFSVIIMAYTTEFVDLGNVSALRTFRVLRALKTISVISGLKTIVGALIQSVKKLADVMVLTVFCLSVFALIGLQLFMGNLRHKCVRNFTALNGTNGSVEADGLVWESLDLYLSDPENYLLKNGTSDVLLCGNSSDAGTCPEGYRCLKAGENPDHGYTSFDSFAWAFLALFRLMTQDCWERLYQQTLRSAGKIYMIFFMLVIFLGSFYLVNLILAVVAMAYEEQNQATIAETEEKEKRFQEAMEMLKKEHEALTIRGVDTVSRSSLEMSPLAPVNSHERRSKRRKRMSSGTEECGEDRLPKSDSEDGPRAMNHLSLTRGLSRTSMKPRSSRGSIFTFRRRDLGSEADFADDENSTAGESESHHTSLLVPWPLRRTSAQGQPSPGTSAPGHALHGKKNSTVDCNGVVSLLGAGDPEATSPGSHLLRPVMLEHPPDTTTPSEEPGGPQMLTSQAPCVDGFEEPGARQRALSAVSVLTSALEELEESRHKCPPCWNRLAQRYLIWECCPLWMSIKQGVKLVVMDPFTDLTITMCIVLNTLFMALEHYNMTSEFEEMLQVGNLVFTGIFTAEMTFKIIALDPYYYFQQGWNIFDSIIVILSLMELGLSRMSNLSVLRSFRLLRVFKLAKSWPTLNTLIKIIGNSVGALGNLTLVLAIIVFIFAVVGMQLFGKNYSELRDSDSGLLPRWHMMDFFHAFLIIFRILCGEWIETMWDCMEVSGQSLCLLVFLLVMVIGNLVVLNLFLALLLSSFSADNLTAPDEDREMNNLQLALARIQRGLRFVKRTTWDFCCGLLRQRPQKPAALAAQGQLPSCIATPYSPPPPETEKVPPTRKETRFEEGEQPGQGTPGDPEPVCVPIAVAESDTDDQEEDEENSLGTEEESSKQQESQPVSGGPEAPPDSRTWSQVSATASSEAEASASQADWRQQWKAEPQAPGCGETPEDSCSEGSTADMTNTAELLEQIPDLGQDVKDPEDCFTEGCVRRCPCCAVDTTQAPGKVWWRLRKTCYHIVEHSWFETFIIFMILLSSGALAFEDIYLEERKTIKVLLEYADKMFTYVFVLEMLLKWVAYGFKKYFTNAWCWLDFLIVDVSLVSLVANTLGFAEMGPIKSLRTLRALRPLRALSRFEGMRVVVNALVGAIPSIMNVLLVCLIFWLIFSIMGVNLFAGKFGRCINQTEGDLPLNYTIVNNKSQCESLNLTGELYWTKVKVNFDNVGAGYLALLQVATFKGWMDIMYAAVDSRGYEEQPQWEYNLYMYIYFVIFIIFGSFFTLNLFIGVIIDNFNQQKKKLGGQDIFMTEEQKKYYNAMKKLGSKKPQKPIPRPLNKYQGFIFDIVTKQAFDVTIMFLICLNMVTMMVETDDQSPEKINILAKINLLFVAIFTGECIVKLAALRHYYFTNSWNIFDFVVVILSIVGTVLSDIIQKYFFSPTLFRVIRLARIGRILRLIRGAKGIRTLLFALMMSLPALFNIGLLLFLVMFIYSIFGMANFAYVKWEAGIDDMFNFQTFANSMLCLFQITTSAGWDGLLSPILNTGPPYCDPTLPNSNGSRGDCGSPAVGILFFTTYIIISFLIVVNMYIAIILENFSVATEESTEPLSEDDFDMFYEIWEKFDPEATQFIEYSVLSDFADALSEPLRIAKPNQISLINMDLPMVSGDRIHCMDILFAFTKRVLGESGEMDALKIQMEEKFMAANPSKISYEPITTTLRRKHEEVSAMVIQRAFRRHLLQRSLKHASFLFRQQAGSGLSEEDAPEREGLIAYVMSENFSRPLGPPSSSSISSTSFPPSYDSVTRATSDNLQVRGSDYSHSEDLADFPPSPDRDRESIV

Setting [1] is: human Nav1.7, automated patch clamp.
Where [2] appears, read: human Nav1.5, automated patch clamp.
Setting [3] is: HEK293A cells stably expressing human Nav1.7 and human Navβ1, automated patch clamp QPatch16X.
Setting [4] is: HEK293 cells stably expressing human Nav1.5, automated patch clamp QPatch16X.

Sequence of human Nav1.7 (Q15858 whole entry): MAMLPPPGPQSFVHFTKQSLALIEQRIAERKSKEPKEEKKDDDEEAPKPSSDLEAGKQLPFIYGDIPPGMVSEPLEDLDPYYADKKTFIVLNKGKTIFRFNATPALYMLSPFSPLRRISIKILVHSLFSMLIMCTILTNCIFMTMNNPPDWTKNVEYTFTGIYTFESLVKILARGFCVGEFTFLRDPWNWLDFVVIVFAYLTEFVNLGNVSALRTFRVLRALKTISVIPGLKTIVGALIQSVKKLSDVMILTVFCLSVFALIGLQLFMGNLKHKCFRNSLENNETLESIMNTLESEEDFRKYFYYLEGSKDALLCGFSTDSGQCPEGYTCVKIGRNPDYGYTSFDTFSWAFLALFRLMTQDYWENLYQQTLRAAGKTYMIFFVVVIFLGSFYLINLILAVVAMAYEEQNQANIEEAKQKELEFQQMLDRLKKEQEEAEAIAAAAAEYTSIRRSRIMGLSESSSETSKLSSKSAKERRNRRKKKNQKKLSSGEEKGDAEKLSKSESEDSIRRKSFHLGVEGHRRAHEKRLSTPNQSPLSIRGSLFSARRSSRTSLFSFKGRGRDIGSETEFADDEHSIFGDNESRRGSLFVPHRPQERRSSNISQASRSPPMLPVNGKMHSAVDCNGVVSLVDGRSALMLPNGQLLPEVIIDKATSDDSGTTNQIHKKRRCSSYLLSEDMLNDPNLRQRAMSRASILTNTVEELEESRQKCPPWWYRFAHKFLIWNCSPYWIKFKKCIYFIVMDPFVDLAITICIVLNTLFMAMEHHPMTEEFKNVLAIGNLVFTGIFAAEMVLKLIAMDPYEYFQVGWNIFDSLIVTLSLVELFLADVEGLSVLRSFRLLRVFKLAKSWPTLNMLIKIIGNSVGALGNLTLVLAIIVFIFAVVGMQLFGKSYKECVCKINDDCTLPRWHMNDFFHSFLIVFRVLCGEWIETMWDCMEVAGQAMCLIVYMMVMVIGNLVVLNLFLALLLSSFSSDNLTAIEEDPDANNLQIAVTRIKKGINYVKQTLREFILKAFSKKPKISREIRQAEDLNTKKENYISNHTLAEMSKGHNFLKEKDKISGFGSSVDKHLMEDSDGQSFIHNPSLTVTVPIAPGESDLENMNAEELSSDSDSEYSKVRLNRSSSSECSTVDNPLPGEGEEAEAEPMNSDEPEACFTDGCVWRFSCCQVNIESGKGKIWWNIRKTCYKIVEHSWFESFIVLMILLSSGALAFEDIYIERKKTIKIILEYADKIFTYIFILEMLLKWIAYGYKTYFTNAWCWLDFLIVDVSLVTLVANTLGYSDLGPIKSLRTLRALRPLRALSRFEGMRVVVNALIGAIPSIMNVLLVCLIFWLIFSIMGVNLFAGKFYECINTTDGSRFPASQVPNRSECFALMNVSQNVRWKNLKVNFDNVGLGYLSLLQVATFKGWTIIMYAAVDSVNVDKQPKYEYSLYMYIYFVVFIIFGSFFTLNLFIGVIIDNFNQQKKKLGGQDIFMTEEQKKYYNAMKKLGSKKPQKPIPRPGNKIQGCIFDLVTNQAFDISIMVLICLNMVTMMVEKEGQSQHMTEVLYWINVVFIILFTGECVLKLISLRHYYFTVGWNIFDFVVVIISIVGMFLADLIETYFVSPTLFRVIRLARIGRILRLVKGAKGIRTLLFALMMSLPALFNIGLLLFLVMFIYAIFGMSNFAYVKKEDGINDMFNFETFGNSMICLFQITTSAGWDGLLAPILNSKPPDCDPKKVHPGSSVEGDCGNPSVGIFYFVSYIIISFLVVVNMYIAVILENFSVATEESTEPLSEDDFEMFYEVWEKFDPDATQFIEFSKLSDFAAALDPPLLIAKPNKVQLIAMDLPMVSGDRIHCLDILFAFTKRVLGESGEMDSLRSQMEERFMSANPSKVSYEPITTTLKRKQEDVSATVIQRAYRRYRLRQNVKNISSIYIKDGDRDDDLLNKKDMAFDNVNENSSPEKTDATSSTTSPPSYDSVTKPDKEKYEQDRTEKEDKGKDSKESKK
Sequence of human Nav1.7 (Q07699 19-218 partner): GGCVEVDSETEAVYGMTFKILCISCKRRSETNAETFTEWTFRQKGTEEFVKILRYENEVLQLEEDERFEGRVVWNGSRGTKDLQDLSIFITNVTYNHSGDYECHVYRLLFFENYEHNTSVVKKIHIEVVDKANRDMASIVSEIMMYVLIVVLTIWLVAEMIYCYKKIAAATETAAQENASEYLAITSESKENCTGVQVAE

In general, IC50 refers to the point on the concentration scale where inhibition reaches its midpoint. A high value points to a need for much substance. `N#Cc1ccc2c(c1)C[C@@H](NC(=O)c1cc3n(n1)CC(CCCOCC(F)F)O3)CO2` (single isomer, unassigned) [604 (isomer A)]: the IC50 against human Nav1.7 (setting [1]) was less than 1000 nM; against human Nav1.5 (setting [2]), 1000 to 3000 nM.
Turning to `O=C(N[C@H]1COc2ccc(C(F)(F)F)cc2C1)c1cc2n(n1)CCC(C(F)F)O2` (mixture of isomers) [Example 160, 5-(difluoromethyl)-N—((R)-6-(trifluoromethyl)chroman-3-yl)-6,7-dihydro-5H-pyrazolo[5,1-b][1,3]oxazine-2-carboxamide], the half-inhibitory concentration (IC50) was less than 1000 nM on human Nav1.7 (setting [1]) and no less than 3000 nM at human Nav1.5 (setting [2]).
`N#Cc1ccc2c(c1)C[C@@H](NC(=O)c1cc3n(n1)CC(CSCC(F)(F)F)O3)CO2` (stereo partly drawn) [Example 199]: the IC50 was less than 10000 nM against human Nav1.7 (setting [1]) and no less than 3000 nM against human Nav1.5 (setting [2]).
As to `Cn1ncc(-c2ccc3c(c2)C[C@@H](NC(=O)c2cc4n(n2)CCC(COCC2CC2)O4)CO3)n1` (stereo partly drawn) [Example 429], the values for the IC50 against human Nav1.7 (setting [1]) and against human Nav1.5 (setting [2]) were less than 10000 nM and no less than 3000 nM, respectively.
The matching figures for `CCCC1CCn2nc(C(=O)N[C@H]3COc4ccc(Cl)cc4C3)cc2O1` (stereo partly drawn) [Example 389]: less than 1000 nM and 1000 to 3000 nM.
For `O=C(N[C@H]1COc2ccc(C(F)(F)F)cc2C1O)c1cc2n(n1)CC(CCCOCC(F)F)O2` (single isomer, unassigned) [608 (isomer B)] the same measures were less than 1000 nM and no less than 3000 nM.
Turning to `COc1cccc(CN2CCn3nc(C(=O)N[C@H]4COc5ccc(Cl)cc5C4)cc3C2)n1` [Example 273], the IC50 against human Nav1.7 (setting [1]) is less than 1000 nM; on human Nav1.5 (setting [2]), no less than 3000 nM.
The matching figures for `O=C(N[C@H]1COc2ccc(CC(F)F)cc2C1)c1cc2n(n1)CCN(CCC1CC1)C2` [Example 504]: less than 1000 nM and 1000 to 3000 nM.
Regarding `O=C(N[C@H]1COc2ccc(COCC(F)(F)F)cc2C1)c1cc2n(n1)CCN(CCOC1CCC1)C2` [Example 266], the figures for the IC50 on human Nav1.7 (setting [1]) and at human Nav1.5 (setting [2]) were less than 1000 nM and no less than 3000 nM, respectively.
In the case of `N#Cc1ccc2c(c1)C[C@@H](NC(=O)c1cc3n(n1)CCC(COC(F)(F)F)O3)CO2` (single isomer, unassigned) [134 (isomer B)], the IC50 at human Nav1.7 (setting [3]) was less than 10000 nM; against human Nav1.5 (setting [4]), no less than 3000 nM.
The matching figures for `O=C(NC1COc2cccc(Cl)c2C1)c1cn2c(n1)CCC(C(F)(F)F)C2` (stereo not drawn) [Example 8]: less than 1000 nM and no less than 3000 nM.
Take `N#Cc1ccc2c(c1)C[C@@H](NC(=O)c1cc3n(n1)CCN(CCC1CC1)C3)CO2` [Example 491]: the figures for the IC50 against human Nav1.7 (setting [1]) and on human Nav1.5 (setting [2]) were less than 10000 nM and no less than 3000 nM, respectively.
For `O=C(N[C@H]1COc2ccccc2C1)c1cc2n(n1)CCN(CC1CC(F)(F)C1)C2` [Example 488], the IC50 against human Nav1.7 (setting [1]) is less than 10000 nM; on human Nav1.5 (setting [2]), no less than 3000 nM.
With `CC(C)CCC1Cn2cc(C(=O)N[C@H]3COc4ccccc4C3)nc2CN1` (stereo partly drawn) [Example 49], the figures for the IC50 against human Nav1.7 (setting [3]) and at human Nav1.5 (setting [4]) were less than 10000 nM and no less than 3000 nM, respectively.
Regarding `N#Cc1cccc2c1CC(NC(=O)c1cn3c(n1)CCC(C(F)(F)F)C3)CO2` (stereo not drawn) [Example 294], the IC50 was less than 10000 nM against human Nav1.7 (setting [1]) and no less than 3000 nM on human Nav1.5 (setting [2]).
Turning to `O=C(N[C@H]1COc2ccc(COCC(F)(F)F)cc2C1)c1cc2n(n1)CC(CC1CCOCC1)O2` (single isomer, unassigned) [622 (isomer A)], the concentration for half-maximal inhibition (IC50) against human Nav1.7 (setting [1]) was less than 1000 nM; on human Nav1.5 (setting [2]) it was no less than 3000 nM.
Take `O=C(N[C@H]1COc2ccc(-c3ccccn3)cc2C1)c1cc2n(n1)CCC(COCC1CC1)O2` (single isomer, unassigned) [111 (isomer A)]: the results for the IC50 against human Nav1.7 (setting [3]) and at human Nav1.5 (setting [4]) were less than 1000 nM and 1000 to 3000 nM, respectively.
On to `O=C(N[C@H]1COc2ccc(Cl)cc2C1)c1cc2n(n1)CCC(OCC(F)(F)F)CO2` (single isomer, unassigned) [256 (isomer A)], for which the IC50 at human Nav1.7 (setting [1]) is less than 1000 nM; against human Nav1.5 (setting [2]) it was no less than 3000 nM.
With `N#Cc1ccc2c(c1)C(F)[C@@H](NC(=O)c1cc3n(n1)CCC(COCC1CC1)O3)CO2` (single isomer, unassigned) [617 (isomer A)], the results for the IC50 against human Nav1.7 (setting [1]) and against human Nav1.5 (setting [2]) were less than 1000 nM and no less than 3000 nM, respectively.
For `O=C(N[C@H]1COc2ccc(CC(F)F)cc2C1)c1cc2n(n1)CCC(C(F)(F)F)O2` (stereo partly drawn) [Example 172] the same measures were less than 10000 nM and no less than 3000 nM.
The matching figures for `O=C(N[C@H]1COc2ccc(CCOC(F)F)cc2C1)c1cc2n(n1)CCC(C(F)F)O2` (stereo partly drawn) [Example 164]: less than 1000 nM and no less than 3000 nM.
For `COC(C)(C)CCc1ccc2c(c1)C[C@@H](NC(=O)c1cc3n(n1)CCC(C(F)(F)F)O3)CO2` (stereo partly drawn) [Example 400] the same measures were less than 1000 nM and no less than 3000 nM.
In the case of `O=C(N[C@H]1COc2ccccc2C1)c1cc2n(n1)CCN(S(=O)(=O)c1cccc(C(F)(F)F)c1)C2` [Example 277], the IC50 on human Nav1.7 (setting [1]) was less than 10000 nM; at human Nav1.5 (setting [2]), no less than 3000 nM.
As for `O=C(N[C@H]1COc2ccccc2C1)c1cn2c(n1)CNC(c1cccc(C(F)(F)F)n1)C2` (stereo partly drawn) [Example 46], the IC50 against human Nav1.7 (setting [3]) is less than 10000 nM; against human Nav1.5 (setting [4]), 1000 to 3000 nM.
For `O=C(N[C@H]1COc2ccc(CC(F)F)cc2C1)c1cc2n(n1)CCC(COCC(F)(F)F)CO2` (single isomer, unassigned) [601 (isomer B)], the results for the IC50 at human Nav1.7 (setting [1]) and against human Nav1.5 (setting [2]) were less than 10000 nM and no less than 3000 nM, respectively.
Turning to `CC1(COCC2CCn3nc(C(=O)N[C@H]4COc5ccc(C#N)cc5C4)cc3O2)CC1` (single isomer, unassigned) [113 (isomer A)], the half-inhibitory concentration (IC50) on human Nav1.7 (setting [3]) was less than 1000 nM; at human Nav1.5 (setting [4]), 1000 to 3000 nM.
Consider `N#Cc1ccc2c(c1)C[C@@H](NC(=O)c1cc3n(n1)CCC(C#CC(F)(F)F)O3)CO2` (stereo partly drawn) [Example 386], for which the IC50 was less than 1000 nM at human Nav1.7 (setting [1]) and no less than 3000 nM on human Nav1.5 (setting [2]).
For `O=C(N[C@H]1COc2ccc(COCC(F)(F)F)cc2C1)c1cc2n(n1)CC(COCC(F)(F)F)O2` (single isomer, unassigned) [188 (isomer A)] the same measures were less than 1000 nM and less than 1000 nM.
Turning to `O=C(N[C@H]1COc2ccccc2C1)c1cn2c(n1)CNC(CCCc1ccccc1)C2` (stereo partly drawn) [Example 55], the half-inhibitory concentration (IC50) on human Nav1.7 (setting [3]) was less than 1000 nM; against human Nav1.5 (setting [4]) it was 1000 to 3000 nM.
With `Cc1ccc2c(c1)C[C@@H](NC(=O)c1cc3n(n1)CC(CCNCC(F)(F)F)O3)CO2` (stereo partly drawn) [Example 227], the IC50 was less than 1000 nM against human Nav1.7 (setting [1]) and 1000 to 3000 nM against human Nav1.5 (setting [2]).
With `O=C(N[C@H]1COc2ccc(Cl)cc2C1)c1nn2c(c1-c1ccccc1)OCCCC2` [Example 481], the values for the IC50 against human Nav1.7 (setting [1]) and at human Nav1.5 (setting [2]) were less than 1000 nM and no less than 3000 nM, respectively.
Regarding `O=C(c1cn2c(n1)CNC(c1cccc(OC(F)(F)F)c1)C2)N1CCOC(c2cccc(C(F)(F)F)c2)C1` (stereo not drawn) [Example 337], the results for the IC50 at human Nav1.7 (setting [1]) and on human Nav1.5 (setting [2]) were less than 10000 nM and no less than 3000 nM, respectively.
For `O=C(N[C@H]1COc2ccccc2C1)c1nc2n(c1-c1ccccc1)CCN(CC(F)(F)F)C2` [Example 338], the figures for the IC50 against human Nav1.7 (setting [1]) and at human Nav1.5 (setting [2]) were less than 10000 nM and no less than 3000 nM, respectively.
For `CC(C)(C)OCC1CCc2nc(C(=O)N[C@H]3COc4ccccc4C3)cn2C1` (stereo partly drawn) [Example 34], the IC50 is less than 10000 nM on human Nav1.7 (setting [3]) and no less than 3000 nM on human Nav1.5 (setting [4]).
As for `O=C(N[C@H]1COc2ccc(COCC(F)(F)F)cc2C1)c1cc2n(n1)CC(CCOCC(F)F)O2` (single isomer, unassigned) [224 (isomer B)], the IC50 at human Nav1.7 (setting [1]) was less than 1000 nM; against human Nav1.5 (setting [2]) it was 1000 to 3000 nM.
Regarding `O=C(N[C@H]1COc2ccc(COCC(F)(F)F)cc2C1)c1cc2n(n1)CC(COCC1CC1)O2` (single isomer, unassigned) [186 (isomer B)], the IC50 is less than 1000 nM against human Nav1.7 (setting [1]) and 1000 to 3000 nM at human Nav1.5 (setting [2]).
